Measured values as given in ChEMBL document CHEMBL4177728, “Protective effects of 6-ureido/thioureido-2,4,5-trimethylpyridin-3-ols against 4-hydroxynonenal-induced cell death in adult retinal pigment epithelial-19 cells” (2018).

What was measured:
[1] = molecular target: T1, NADPH oxidase 4 (Homo sapiens) (UniProt Q9NPH5); test: (§1) Inhibition of NOX4 in human ARPE19 cells assessed as suppression of 4-HNE-induced superoxide production at 10 uM pre-incubated for 1 hr before 4-HNE addition for 1 hr by lucigenin chemiluminescence assay; type: cell-based
T1 sequence (whole entry): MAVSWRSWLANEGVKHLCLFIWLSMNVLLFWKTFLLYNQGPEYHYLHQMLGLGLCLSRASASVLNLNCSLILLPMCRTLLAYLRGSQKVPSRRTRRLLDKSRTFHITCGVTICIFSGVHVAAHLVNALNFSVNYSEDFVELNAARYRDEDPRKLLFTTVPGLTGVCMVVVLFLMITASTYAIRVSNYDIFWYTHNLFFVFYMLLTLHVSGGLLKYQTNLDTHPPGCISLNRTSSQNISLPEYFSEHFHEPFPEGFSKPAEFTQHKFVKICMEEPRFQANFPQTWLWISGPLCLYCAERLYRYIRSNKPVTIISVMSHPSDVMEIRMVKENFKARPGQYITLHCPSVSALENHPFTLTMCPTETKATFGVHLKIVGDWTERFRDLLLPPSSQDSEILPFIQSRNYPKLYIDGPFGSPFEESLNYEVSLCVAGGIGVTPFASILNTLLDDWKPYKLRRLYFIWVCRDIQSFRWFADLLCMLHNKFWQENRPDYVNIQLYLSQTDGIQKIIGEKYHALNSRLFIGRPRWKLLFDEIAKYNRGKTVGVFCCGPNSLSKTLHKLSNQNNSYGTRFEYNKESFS

[2] = molecular target: T1, NADPH oxidase 4 (Homo sapiens); test: (§2) Inhibition of NOX4 in human ARPE19 cells assessed as protection against 4-HNE-induced cell death by measuring cell viability recovery at 10 uM incubated for 24 hrs by MTT assay; type: cell-based
[3] = Antioxidant activity assessed as DPPH radical scavenging activity at 10 uM by spectrphotomery; type: functional
ARPE-19 [4] = test: Suppression of 4-HNE-induced apoptosis in human ARPE19 cells assessed as necrosis cells level at 5 uM incubated for 24 hrs by FITC Annexin V and propidium iodide staining based flow cytometry (reference value: 0.342%); type: functional
ARPE-19 [5] = test: Suppression of 4-HNE-induced apoptosis in human ARPE19 cells assessed as viable cells level at 10 uM incubated for 24 hrs by FITC Annexin V and propidium iodide staining based flow cytometry (reference value: 59.1%); type: functional
ARPE-19 [6] = test: Suppression of 4-HNE-induced apoptosis in human ARPE19 cells assessed as late apoptosis cells level at 20 uM incubated for 24 hrs by FITC Annexin V and propidium iodide staining based flow cytometry (reference value: 23%); type: functional
ARPE-19 [7] = test: Suppression of 4-HNE-induced apoptosis in human ARPE19 cells assessed as viable cells level at 5 uM incubated for 24 hrs by FITC Annexin V and propidium iodide staining based flow cytometry (reference value: 59.1%); type: functional
ARPE-19 [8] = test: Suppression of 4-HNE-induced apoptosis in human ARPE19 cells assessed as late apoptosis cells level at 5 uM incubated for 24 hrs by FITC Annexin V and propidium iodide staining based flow cytometry (reference value: 23%); type: functional
ARPE-19 [9] = test: Suppression of 4-HNE-induced apoptosis in human ARPE19 cells assessed as early apoptosis cells level at 10 uM incubated for 24 hrs by FITC Annexin V and propidium iodide staining based flow cytometry (reference value: 17.6%); type: functional
ARPE-19 [10] = test: Suppression of 4-HNE-induced apoptosis in human ARPE19 cells assessed as viable cells level at 20 uM incubated for 24 hrs by FITC Annexin V and propidium iodide staining based flow cytometry (reference value: 59.1%); type: functional
ARPE-19 [11] = test: Suppression of 4-HNE-induced apoptosis in human ARPE19 cells assessed as late apoptosis cells level at 10 uM incubated for 24 hrs by FITC Annexin V and propidium iodide staining based flow cytometry (reference value: 23%); type: functional
ARPE-19 [12] = test: Suppression of 4-HNE-induced apoptosis in human ARPE19 cells assessed as early apoptosis cells level at 20 uM incubated for 24 hrs by FITC Annexin V and propidium iodide staining based flow cytometry (reference value: 17.6%); type: functional
ARPE-19 [13] = test: Suppression of 4-HNE-induced apoptosis in human ARPE19 cells assessed as early apoptosis cells level at 5 uM incubated for 24 hrs by FITC Annexin V and propidium iodide staining based flow cytometry (reference value: 17.6%); type: functional
ARPE-19 [14] = test: Suppression of 4-HNE-induced apoptosis in human ARPE19 cells assessed as necrosis cells level at 10 uM incubated for 24 hrs by FITC Annexin V and propidium iodide staining based flow cytometry (reference value: 0.342%); type: functional
ARPE-19 [15] = test: Suppression of 4-HNE-induced apoptosis in human ARPE19 cells assessed as necrosis cells level at 20 uM incubated for 24 hrs by FITC Annexin V and propidium iodide staining based flow cytometry (reference value: 0.342%); type: functional
[16] = molecular target: NADPH oxidase 4 (Homo sapiens) (UniProt Q9NPH5); test: as §1; type: cell-based; remark: listed apart in the source
[17] = molecular target: NADPH oxidase 4 (Homo sapiens) (UniProt Q9NPH5); test: as §2; type: cell-based; remark: listed apart in the source
[18] = molecular target: T1, NADPH oxidase 4 (Homo sapiens); test: Inhibition of NOX4 in human ARPE19 cells assessed as protection against 4-HNE-induced cell death by measuring cell viability recovery incubated for 24 hrs by MTT assay; type: cell-based

Cc1nc(NC(=O)Nc2ccc(Cl)cc2)c(C)c(C)c1O
inhibition [1]: 30.8%
Activity [2]: 43.6%
Activity [3]: 6.2%

Cc1ccc(NC(=S)Nc2nc(C)c(O)c(C)c2C)cc1
inhibition [1]: 41.3%
Activity [2]: 54%
Activity [3]: 6.9%

CCCCCCNC(=S)Nc1nc(C)c(O)c(C)c1C
inhibition [1]: 17.9%
Activity [2]: 22.8%
Activity [3]: 16.5%

Cc1nc(NC(=S)NC(C)C)c(C)c(C)c1O
inhibition [1]: 13.9%
Activity [2]: 14.7%
Activity [3]: 5.5%

CCNC(=S)Nc1nc(C)c(O)c(C)c1C
inhibition [1]: 36.7%
Activity [2]: 44.9%
Activity [3]: 13.3%

CCCNC(=O)Nc1nc(C)c(O)c(C)c1C
inhibition [1]: 9.4%
Activity [2]: 12.5%
Activity [3]: 5.5%

Cc1nc(NC(=O)Nc2cccc3ccccc23)c(C)c(C)c1O
inhibition [1]: 2.4%
Activity [2]: 7.3%
Activity [3]: 6.3%

Cc1nc(NC(=O)Nc2ccc(OC(F)(F)F)cc2)c(C)c(C)c1O
inhibition [1]: 51.1%
Activity [2]: 58.4%
Activity [3]: 6.1%

Cc1nc(NC(=O)NCc2ccccc2)c(C)c(C)c1O
inhibition [1]: 4.6%
Activity [2]: 10.5%
Activity [3]: 6%

COc1ccc(NC(=S)Nc2nc(C)c(O)c(C)c2C)cc1
inhibition [1]: 17.7%
Activity [2]: 23.2%
Activity [3]: 4.7%

CCCCCCCCNC(=S)Nc1nc(C)c(O)c(C)c1C
inhibition [1]: 40.7%
Activity [2]: 45.9%
Activity [3]: 14.6%

Cc1nc(NC(=S)Nc2ccc(Cl)c(Cl)c2)c(C)c(C)c1O
inhibition [1]: 19%
Activity [2]: 24.9%
Activity [3]: 6.6%

Cc1nc(NC(=O)Nc2ccccc2)c(C)c(C)c1O
inhibition [1]: 7.1%
Activity [2]: 8.9%
Activity [3]: 5.8%

c1ccc(Cn2nnc3c(Sc4nc5ccccc5o4)ncnc32)cc1
Activity (ARPE-19 [4]): 0.25%
Activity (ARPE-19 [5]): 89.8%
Activity (ARPE-19 [6]): 1.81%
Activity (ARPE-19 [7]): 80.4%
Activity (ARPE-19 [8]): 7.66%
inhibition [1]: 78.7%
Activity [2]: 79.4%
Activity (ARPE-19 [9]): 5.62%
Activity (ARPE-19 [10]): 95.2%
Activity [3]: 6.9%
Activity (ARPE-19 [11]): 4.42%
Activity (ARPE-19 [12]): 2.87%
Activity (ARPE-19 [13]): 11.8%
Activity (ARPE-19 [14]): 0.254%
Activity (ARPE-19 [15]): 0.145%

VITAMIN E
inhibition [16]: 3.9%
Activity [17]: 9.8%
Activity [3]: 10.2%

Cc1nc(NC(=S)Nc2ccccc2)c(C)c(C)c1O
inhibition [1]: 2.3%
Activity [2]: 8.9%
Activity [3]: 5.6%

Cc1nc(NC(=O)NC(=O)c2ccccc2)c(C)c(C)c1O
inhibition [1]: 8.8%
Activity [2]: 1.5%
Activity [3]: 6.7%

O=C1O[C@H]([C@@H](O)CO)C(O)=C1O
inhibition [1]: 3.4%
Activity [2]: 8.2%
Activity [3]: 10.2%

Cc1ccc(S(=O)(=O)NC(=O)Nc2nc(C)c(O)c(C)c2C)cc1
inhibition [1]: 28.6%
Activity [2]: 32.5%
Activity [3]: 5.7%

Cc1nc(NC(=S)NC2CCCCC2)c(C)c(C)c1O
inhibition [1]: 61.9%
Activity [2]: 62.2%
Activity [3]: 7.1%

Cc1nc(NC(=S)NC(=O)c2ccccc2)c(C)c(C)c1O
inhibition [1]: 68.7%
Activity [2]: 63.1%
Activity [3]: 4.9%

Cc1nc(NC(=O)Nc2ccc(Br)cc2)c(C)c(C)c1O
inhibition [1]: 0.9%
Activity [2]: 7.3%
Activity [3]: 4%

Cc1nc(NC(=S)Nc2ccc([N+](=O)[O-])cc2)c(C)c(C)c1O
inhibition [1]: 71.8%
Activity [2]: 77.7%
Activity [3]: 5.5%
inhibition [18]: Dose-dependent effect

Cc1ccc(NC(=O)Nc2nc(C)c(O)c(C)c2C)cc1
inhibition [1]: 6.2%
Activity [2]: 5.3%
Activity [3]: 3.4%

COc1ccc(NC(=O)Nc2nc(C)c(O)c(C)c2C)cc1
inhibition [1]: 5.8%
Activity [2]: 10.8%
Activity [3]: 7.4%

Cc1nc(NC(=O)Nc2ccc(C(C)C)cc2)c(C)c(C)c1O
inhibition [1]: -1.3%
Activity [2]: -5.1%
Activity [3]: 4.2%

Cc1nc(NC(=O)Nc2ccc(F)cc2)c(C)c(C)c1O
inhibition [1]: 6.9%
Activity [2]: 6.2%
Activity [3]: 7.4%

Cc1nc(NC(=O)Nc2ccc(C(F)(F)F)cc2)c(C)c(C)c1O
inhibition [1]: 41.3%
Activity [2]: 44.2%
Activity [3]: 5.9%

Cc1cccc(C(C)(C)C)c1NC(=O)Nc1nc(C)c(O)c(C)c1C
inhibition [1]: 8.9%
Activity [2]: 12.8%
Activity [3]: 3.3%

Cc1nc(NC(=S)Nc2ccc(Cl)cc2)c(C)c(C)c1O
inhibition [1]: 13%
Activity [2]: 12.8%
Activity [3]: 6.5%

Cc1nc(NC(=O)Nc2ccc([N+](=O)[O-])cc2)c(C)c(C)c1O
inhibition [1]: 8.3%
Activity [2]: 13.9%
Activity [3]: 5.2%

CCCCNC(=S)Nc1nc(C)c(O)c(C)c1C
Activity (ARPE-19 [4]): 0.335%
Activity (ARPE-19 [5]): 93.4%
Activity (ARPE-19 [6]): 0.079%
Activity (ARPE-19 [7]): 88.6%
Activity (ARPE-19 [8]): 4.24%
inhibition [1]: 79.5%
Activity [2]: 85.1%
Activity (ARPE-19 [9]): 3.06%
Activity (ARPE-19 [10]): 99.7%
Activity [3]: 5.9%
Activity (ARPE-19 [11]): 3.38%
Activity (ARPE-19 [12]): 0.112%
Activity (ARPE-19 [13]): 6.84%
inhibition [18]: Dose-dependent effect
Activity (ARPE-19 [14]): 0.134%
Activity (ARPE-19 [15]): 0.067%

Cc1nc(NC(=S)Nc2cccc(C(F)(F)F)c2)c(C)c(C)c1O
inhibition [1]: 20.1%
Activity [2]: 29.6%
Activity [3]: 7.6%

Cc1nc(NC(=S)Nc2ccc(Br)cc2)c(C)c(C)c1O
inhibition [1]: 22.8%
Activity [2]: 33.5%
Activity [3]: 7.4%

Cc1nc(NC(=S)Nc2ccc(C(F)(F)F)cc2)c(C)c(C)c1O
inhibition [1]: 30.5%
Activity [2]: 40.4%
Activity [3]: 6.7%
